Reference: patent US20080031866A1, “METHOD FOR MODULATING THE PHARMACOKINETICS AND METABOLISM OF A THERAPEUTIC AGENT” (priority 2006, published 2008)
Read-outs that look alike come from different tables or passages of the source. One block for each compound: values may come before it.

Assay: Oral gavage pharmacokinetics, jugular and portal vein sampling, first pass metabolism
Format: in vivo, rat
Conditions: for AUC: po, 75 mg/kg; for AUC / concentration at 0 h / concentration at 0.08 h / concentration at 0.25 h / concentration at 0.33 h / concentration at 0.5 h / concentration at 0.67 h / concentration at 1 h / concentration at 1.25 h / concentration at 1.5 h / concentration at 2 h / concentration at 3 h / concentration at 4 h / concentration at 6 h / concentration at 12 h / concentration at 24 h / Cmax: rats N=4; for AUC / concentration at 0 h / concentration at 0.08 h / concentration at 0.25 h / concentration at 0.33 h / concentration at 0.5 h / concentration at 0.67 h / concentration at 1 h / concentration at 1.25 h / concentration at 1.5 h / concentration at 2 h / concentration at 3 h / concentration at 4 h / concentration at 6 h / concentration at 12 h / concentration at 24 h / Cmax / Tmax: Compound 1 75 mg/kg oral gavage; for Cmax: read-out: Cmax average ± standard deviation; for Tmax: rats; for Ratio of metabolite to Compound 1: jugular vein; for Ratio of metabolite to Compound 1 / Mean ratio of metabolite to Compound 1: oral gavage; for Mean ratio of metabolite to Compound 1: portal system
Experimental: Two separate IV studies were carried out using two separate lots of animals. IV-A was run on the same lot of animals as the oral gavage study and IV-B was run on the same lot of animals as the intraduodenal and intra-colonic studies.
For the oral gavage dosing, Compound 1 was prepared in neat PEG-400. For the intraduodenal and intracolonic dosing solutions, Compound 1 was added to neat Tween 80, the mixture was sonicated for thirty minutes at 45° C. until Compound 1 was completely dissolved and then deionized (DI) water was added to form a solution consisting of 20% Tween 80 and 80% DI water by weight.
For the IV and oral gavage dosing (sampling at jugular and portal vein), young adult male Sprague Dawley rats weighing 250-400 g were purchased from Hilltop Lab Animals Inc. All rat experiments were conducted under approved animal protocols. The rats for the oral gavage dosing were catheterized at Hilltop Lab Animals Inc, had two chronic catheters for sampling: jugular and portal, were housed in cages of Culex™ Automated Blood Sampler (ABS) and blood samples were collected simultaneously via both cannula and were controlled by the Culex™ ABS control software.
A quantitative method for determining the amount of (6,7-dimethoxy-2,4-dihydro-indeno[1,2-c]pyrazol-3-yl)-(3-fluoro-phenyl)-amine Compound 1 and its major metabolites, glucuronide A (Cpd 1-GluA) and glucuronide B (Cpd 1-GluB) (see Scheme A) in rat plasma was developed using phenacetin as an internal standard. [drawing 1]
The two glucuronide conjugates were prepared and purified to permit accurate quantification of the levels of intact parent Compound 1 versus Cpd 1-GluA and Cpd 1-GluB. Each standard curve for Compound 1, Cpd 1-GluA, and Cpd 1-GluB generated from rat plasma included ten concentration levels. […] The quantitative procedure for each sample included: sample preparation, HPLC separation and mass spectrometry detection.
The rat plasma was prepared using protein precipitation techniques. Reference standards and quality control samples in rat plasma for Compound 1 were transferred to a 96 deep-well plate. The precipitation solution contained 100 ng/ml of internal standard in acetonitrile. 300 μl of precipitation solution were added to 100 μl of each standard, quality control and plasma sample. Samples were vortexed for 10 mins, then centrifuged at 4500 RPM for 10 mins. 10 μl of each sample were injected for LC/MS/MS analysis.
The HPLC column chosen for the bioanalysis was purchased from Thermo Electron (Hypersil BetaBasic C18, 5 cm×2.1 mm). The eluting solvents were composed of Solvent A: 0.1% formic acid in H2O and Solvent B: 0.1% formic acid in acetonitrile. A step gradient was used and flow rate was 300 μl/min. The total run time was 3.2 mins. Solvent B was increased from 35% at 0 min to 75% at 2.1 mins and decreased back to 35% at 2.2 mins. The retention times for Compound 1, phenacetin, Cpd 1-GluA and Cpd 1-GluB were 1.1 min, 0.9 min, 1.3 min, and 1.6 min, respectively.
API3000 with a Turbo Ionspray interface from Applied Biosystems was used for the detection of Compound 1, the internal standard and major metabolites. Electrospray ionization was performed in the positive ion mode heated nebulizer with a temperature of 300° C. LC/MS/MS chromatograms were acquired in MRM (multiple reaction mode). The MRM transitions for Compound 1, the internal standard, Cpd 1-GluA and Cpd 1-GluB were from 326.3 to 190.6, 181.1 to 110.3, 502.2 to 368.3 and 502.2 to 326.4, respectively. […]

[1] = male, Sprague Dawley, rat, plasma (jugular vein sample), jugular sample, read-out: AUC average ± standard deviation 0 to 24 hours
[2] = male, Sprague Dawley, rat, plasma (jugular vein sample), jugular sample, read-out: AUC average ± standard deviation 0 to infinite hours
[3] = male, Sprague Dawley, rat, plasma (jugular vein sample), jugular sample
[4] = male, Sprague Dawley, rat, plasma (portal vein sample), portal sample
[5] = male, Sprague Dawley, rat, plasma
[6] = male, Sprague Dawley, rat, portal vein plasma, portal sample, read-out: AUC average ± standard deviation 0 to 24 hours
[7] = male, Sprague Dawley, rat, portal vein plasma, portal sample, read-out: AUC average ± standard deviation 0 to infinite hours
[8] = male, Sprague Dawley, rat, portal vein plasma, portal sample

Local absorption ratio (Fa) (Compound 1 75 mg/kg oral, Equation (2)): 48±18%
Hepatic recovery ratio (Fh) (Equation (3)): 40%
Extent of first pass metabolism (gut): 52%
Extent of first pass metabolism (liver): 60%
AUC [1]: 2340 ng·h/mL
AUC [2]: 2410 ng·h/mL
concentration at 0 h [3]: 6.7 ng/mL
concentration at 0.08 h [3]: 447 ng/mL
concentration at 0.25 h [3]: 2120 ng/mL
concentration at 0.33 h [3]: 1770 ng/mL
concentration at 0.5 h [3]: 1220 ng/mL
concentration at 0.67 h [3]: 626 ng/mL
concentration at 1 h [3]: 442 ng/mL
concentration at 1.25 h [3]: 465 ng/mL
concentration at 1.5 h [3]: 409 ng/mL
concentration at 2 h [3]: 378 ng/mL
concentration at 3 h [3]: 127 ng/mL
concentration at 4 h [3]: 61.3 ng/mL
concentration at 6 h [3]: 51.1 ng/mL
concentration at 12 h [3]: 22.8 ng/mL
concentration at 24 h [3]: 7.7 ng/mL
Cmax [3]: 2120 ng/mL
concentration at 0.67 h [4]: 2300 ng/mL
concentration at 1 h [4]: 346 ng/mL
concentration at 1.25 h [4]: 972 ng/mL
concentration at 1.5 h [4]: 465 ng/mL
concentration at 2 h [4]: 1880 ng/mL
concentration at 3 h [4]: 336 ng/mL
concentration at 4 h [4]: 398 ng/mL
concentration at 6 h [4]: 1010 ng/mL
concentration at 12 h [4]: 250 ng/mL
bioavailability (male, Sprague Dawley, rat, plasma, Compound 1 75 mg/kg oral, read-out: Systemic oral bioavailability): 19 ± 5%
Tmax [5]: 15 min
AUC [6]: 11900 ng·h/mL
AUC [7]: 12500 ng·h/mL
concentration at 0 h [8]: 2.4 ng/mL
concentration at 0.08 h [8]: 7520 ng/mL
concentration at 0.25 h [8]: 4250 ng/mL
concentration at 0.33 h [8]: 3880 ng/mL
concentration at 0.5 h [8]: 873 ng/mL
concentration at 24 h [8]: 224 ng/mL
Cmax [8]: 8690 ng/mL
Plasma level of Compound 1 relative to level of the metabolites (oral administration): 6%
Compound: COc1cc2c(cc1OC)-c1n[nH]c(Nc3cccc(F)c3)c1C2 [Compound 1, (6,7-dimethoxy-2,4-dihydro-indeno[1,2-c]pyrazol-3-yl)-(3-fluoro-phenyl)-amine]

Compound: COc1cc2c(cc1OC)-c1n[nH]c(N(c3cccc(F)c3)[C@H]3O[C@@H](C(=O)O)[C@H](O)[C@@H](O)[C@@H]3O)c1C2 [Cpd 1-GluA]
Ratio of metabolite to Compound 1: 78
AUC [1]: 117000 ng·h/mL
AUC [2]: 169000 ng·h/mL
concentration at 0 h [3]: 2.2 ng/mL
concentration at 0.08 h [3]: 2570 ng/mL
concentration at 0.25 h [3]: 12400 ng/mL
concentration at 0.33 h [3]: 16100 ng/mL
concentration at 0.5 h [3]: 15700 ng/mL
concentration at 0.67 h [3]: 14700 ng/mL
concentration at 1 h [3]: 14300 ng/mL
concentration at 1.25 h [3]: 11700 ng/mL
concentration at 1.5 h [3]: 11700 ng/mL
concentration at 2 h [3]: 11100 ng/mL
concentration at 3 h [3]: 6480 ng/mL
concentration at 4 h [3]: 3750 ng/mL
concentration at 6 h [3]: 4290 ng/mL
concentration at 12 h [3]: 5170 ng/mL
concentration at 24 h [3]: 2470 ng/mL
Cmax [3]: 17600 ng/mL
concentration at 0.67 h [4]: 26000 ng/mL
concentration at 1 h [4]: 11700 ng/mL
concentration at 1.25 h [4]: 15100 ng/mL
concentration at 1.5 h [4]: 12200 ng/mL
concentration at 2 h [4]: 14700 ng/mL
concentration at 3 h [4]: 10700 ng/mL
concentration at 4 h [4]: 7500 ng/mL
concentration at 6 h [4]: 11600 ng/mL
concentration at 12 h [4]: 8000 ng/mL
Tmax [5]: 54 min
AUC [6]: 190000 ng·h/mL
AUC [7]: 271000 ng·h/mL
concentration at 0 h [8]: 1.3 ng/mL
concentration at 0.08 h [8]: 9460 ng/mL
concentration at 0.25 h [8]: 18900 ng/mL
concentration at 0.33 h [8]: 22400 ng/mL
concentration at 0.5 h [8]: 17400 ng/mL
concentration at 24 h [8]: 5070 ng/mL
Cmax [8]: 29200 ng/mL
Systemic exposure of Glu A relative to Glu B (oral gavage dosing): ~66 times
Mean ratio of metabolite to Compound 1: 20

Compound: COc1cc2c(cc1OC)-c1nn(C3OC(C(=O)O)C(O)C(O)C3O)c(Nc3cccc(F)c3)c1C2 (stereo in doubt) [Cpd 1-GluB]
Ratio of metabolite to Compound 1: 1
AUC [1]: 1710 ng·h/mL
AUC [2]: 2180 ng·h/mL
concentration at 0 h [3]: 0 ng/mL
concentration at 0.08 h [3]: 37.8 ng/mL
concentration at 0.25 h [3]: 169 ng/mL
concentration at 0.33 h [3]: 233 ng/mL
concentration at 0.5 h [3]: 223 ng/mL
concentration at 0.67 h [3]: 244 ng/mL
concentration at 1 h [3]: 230 ng/mL
concentration at 1.25 h [3]: 178 ng/mL
concentration at 1.5 h [3]: 169 ng/mL
concentration at 2 h [3]: 141 ng/mL
concentration at 3 h [3]: 90 ng/mL
concentration at 4 h [3]: 51.4 ng/mL
concentration at 6 h [3]: 71.3 ng/mL
concentration at 12 h [3]: 86.5 ng/mL
concentration at 24 h [3]: 29 ng/mL
Cmax [3]: 268 ± 52 ng/mL
concentration at 0.67 h [4]: 290 ng/mL
concentration at 1 h [4]: 164 ng/mL
concentration at 1.25 h [4]: 183 ng/mL
concentration at 1.5 h [4]: 151 ng/mL
concentration at 2 h [4]: 142 ng/mL
concentration at 3 h [4]: 105 ng/mL
concentration at 4 h [4]: 79.5 ng/mL
concentration at 6 h [4]: 120 ng/mL
concentration at 12 h [4]: 87.2 ng/mL
Tmax [5]: 30 min
AUC [6]: 1960 ng·h/mL
AUC [7]: 2490 ng·h/mL
concentration at 0 h [8]: 0 ng/mL
concentration at 0.08 h [8]: 82.8 ng/mL
concentration at 0.25 h [8]: 215 ng/mL
concentration at 0.33 h [8]: 263 ng/mL
concentration at 0.5 h [8]: 192 ng/mL
concentration at 24 h [8]: 39.9 ng/mL
Cmax [8]: 324 ± 129 ng/mL
Mean ratio of metabolite to Compound 1: 0.2
